The values below come from ChEMBL document CHEMBL4673331 (J Med Chem, 2020).

The target of series [1] is T1, Mucosa-associated lymphoid tissue lymphoma translocation protein 1 (Homo sapiens, UniProt Q9UDY8).
T1 sequence (Q9UDY8 whole entry): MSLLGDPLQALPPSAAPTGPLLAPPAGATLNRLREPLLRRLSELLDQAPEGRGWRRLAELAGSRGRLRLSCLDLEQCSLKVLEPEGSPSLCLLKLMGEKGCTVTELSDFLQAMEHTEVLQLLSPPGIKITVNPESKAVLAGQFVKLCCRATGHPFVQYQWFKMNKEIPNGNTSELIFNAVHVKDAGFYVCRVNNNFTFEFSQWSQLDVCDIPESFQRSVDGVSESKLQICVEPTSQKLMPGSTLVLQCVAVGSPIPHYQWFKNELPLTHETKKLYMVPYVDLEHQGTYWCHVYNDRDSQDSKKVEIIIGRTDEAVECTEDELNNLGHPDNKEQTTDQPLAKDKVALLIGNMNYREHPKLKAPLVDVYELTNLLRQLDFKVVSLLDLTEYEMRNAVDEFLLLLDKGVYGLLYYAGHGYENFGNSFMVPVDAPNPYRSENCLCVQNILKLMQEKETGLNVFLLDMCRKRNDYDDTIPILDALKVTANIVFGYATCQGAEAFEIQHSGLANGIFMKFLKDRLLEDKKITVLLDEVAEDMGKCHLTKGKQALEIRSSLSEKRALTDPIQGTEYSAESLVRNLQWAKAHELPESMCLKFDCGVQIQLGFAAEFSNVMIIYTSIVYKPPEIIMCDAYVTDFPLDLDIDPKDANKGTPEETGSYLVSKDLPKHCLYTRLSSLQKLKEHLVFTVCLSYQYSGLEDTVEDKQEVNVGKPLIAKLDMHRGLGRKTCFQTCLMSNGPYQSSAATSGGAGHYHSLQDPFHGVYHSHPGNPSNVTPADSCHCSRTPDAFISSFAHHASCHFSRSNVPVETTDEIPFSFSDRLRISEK
The series is described as follows: Allosteric inhibition of human wild-type […] MALT1 (329 to 824 residues) protease activity using Ac-Leu-Arg-Ser-Arg Rh110-dPro as substrate preincubated for 60 mins followed by substrate addition and measured after 60 mins by fluorescence assay.

In series [2] the target is T1, Mucosa-associated lymphoid tissue lymphoma translocation protein 1. The series can be described thus: Allosteric inhibition of MALT1 in human OCI-LY3 cells assessed as reduction in BCL10 cleavage measured after 24 hrs by ELISA. It is filed as cell-based, OCILY3. On the technique in general: An ELISA detects its analyte on a solid surface through an enzyme-linked reagent.

Series [3] in a line: Solubility of the compound at pH 6.8. It is filed as physicochemical. Conditions: buffer.
Series [4] is described as follows: Lipophilicity, log D of the compound at pH 7.4. The series is classed as physicochemical. The note with it: buffer.
A short description of series [5]: Permeability of compound by PAMPA assay. The series is classed as ADME. On the technique in general: The PAMPA barrier holds no transporters, so it reflects passive diffusion.
The nature of series [6]: Intrinsic clearance in rat liver microsomes. The series is classed as ADME, Microsome. The note with it: read-out: CLH. (In general: Liver microsomes are vesicles of endoplasmic reticulum, rich in cytochrome P450 enzymes.)
Series [7] in a line: Protein binding in rat plasma. Conditions: read-out: PPB (converted). The series is classed as ADME, cell-free.
Series [8] is described as follows: Clearance in male Sprague-Dawley rat at 1 mg/kg, iv administered as bolus dose. The series is classed as ADME, organism-based. Conditions: in vivo.
A short description of series [9]: Volume of distribution at steady state in Sprague-Dawley rat at 1 mg/kg, iv administered as bolus dose. The series is classed as ADME, organism-based. The note with it: in vivo, read-out: Vdss.
Series [10] is described as follows: Terminal half-life in Sprague-Dawley rat at 1 mg/kg, iv administered as bolus dose. The series is classed as ADME, organism-based. Conditions: in vivo, read-out: beta t1/2 (converted).
Series [11] is described as follows: Dose normalized AUC in Sprague-Dawley rat at 1 mg/kg, iv administered as bolus dose. The series is classed as ADME, organism-based. Conditions: in vivo.
Series [12] can be described thus: Dose normalized AUC in Sprague-Dawley rat at 3 mg/kg, po administered as MCT suspension. The series is classed as ADME, organism-based. Conditions: in vivo.
Series [13] is described as follows: Dose normalized AUC in Sprague-Dawley rat at 1.25 mg/kg, po administered as solution. The note with it: in vivo. The series is classed as ADME, organism-based.
The nature of series [14]: Oral bioavailability in Sprague-Dawley rat at 3 mg/kg administered as MCT suspension. The note with it: in vivo. The series is classed as ADME, organism-based.
A short description of series [15]: Oral bioavailability in Sprague-Dawley rat at 1.25 mg/kg administered as solution. The series is classed as ADME, organism-based. Conditions: in vivo.
Series [16] can be described thus: Dose normalized Cmax in Sprague-Dawley rat at 3 mg/kg, po administered as MCT suspension. It is filed as ADME, organism-based. The note with it: in vivo.
Series [17] is described as follows: Dose normalized Cmax in Sprague-Dawley rat at 1.25 mg/kg, po administered as solution. The series is classed as ADME, organism-based. Conditions: in vivo.
Series [18] is described as follows: Tmax in Sprague-Dawley rat at 3 mg/kg, po administered as MCT suspension. The series is classed as ADME, organism-based. The note with it: in vivo.
Series [19] is described as follows: Tmax in Sprague-Dawley rat at 1.25 mg/kg, po administered as solution. The series is classed as ADME, organism-based. The note with it: in vivo.
Series [20] can be described thus: Thermodynamic solubility of the compound at pH 6.8. The note with it: buffer, read-out: Therm_solubility. It is filed as physicochemical.
Series [21] deals with Voltage-gated inwardly rectifying potassium channel KCNH2 (Homo sapiens, UniProt Q12809). The series is described as follows: Inhibition of human ERG.
The nature of series [22]: Solubility of compound at pH 6.8. It is filed as physicochemical. The note with it: buffer.
Series [23] is described as follows: Solubility of compound at pH 6.8 assessed as extrapolated log of solubility. The series is classed as physicochemical. Conditions: buffer.

SMILES strings stand for the structures. Converted amounts (≈) assume the structure as drawn.

Voltage-gated inwardly rectifying potassium channel KCNH2, sequence (Q12809 whole entry): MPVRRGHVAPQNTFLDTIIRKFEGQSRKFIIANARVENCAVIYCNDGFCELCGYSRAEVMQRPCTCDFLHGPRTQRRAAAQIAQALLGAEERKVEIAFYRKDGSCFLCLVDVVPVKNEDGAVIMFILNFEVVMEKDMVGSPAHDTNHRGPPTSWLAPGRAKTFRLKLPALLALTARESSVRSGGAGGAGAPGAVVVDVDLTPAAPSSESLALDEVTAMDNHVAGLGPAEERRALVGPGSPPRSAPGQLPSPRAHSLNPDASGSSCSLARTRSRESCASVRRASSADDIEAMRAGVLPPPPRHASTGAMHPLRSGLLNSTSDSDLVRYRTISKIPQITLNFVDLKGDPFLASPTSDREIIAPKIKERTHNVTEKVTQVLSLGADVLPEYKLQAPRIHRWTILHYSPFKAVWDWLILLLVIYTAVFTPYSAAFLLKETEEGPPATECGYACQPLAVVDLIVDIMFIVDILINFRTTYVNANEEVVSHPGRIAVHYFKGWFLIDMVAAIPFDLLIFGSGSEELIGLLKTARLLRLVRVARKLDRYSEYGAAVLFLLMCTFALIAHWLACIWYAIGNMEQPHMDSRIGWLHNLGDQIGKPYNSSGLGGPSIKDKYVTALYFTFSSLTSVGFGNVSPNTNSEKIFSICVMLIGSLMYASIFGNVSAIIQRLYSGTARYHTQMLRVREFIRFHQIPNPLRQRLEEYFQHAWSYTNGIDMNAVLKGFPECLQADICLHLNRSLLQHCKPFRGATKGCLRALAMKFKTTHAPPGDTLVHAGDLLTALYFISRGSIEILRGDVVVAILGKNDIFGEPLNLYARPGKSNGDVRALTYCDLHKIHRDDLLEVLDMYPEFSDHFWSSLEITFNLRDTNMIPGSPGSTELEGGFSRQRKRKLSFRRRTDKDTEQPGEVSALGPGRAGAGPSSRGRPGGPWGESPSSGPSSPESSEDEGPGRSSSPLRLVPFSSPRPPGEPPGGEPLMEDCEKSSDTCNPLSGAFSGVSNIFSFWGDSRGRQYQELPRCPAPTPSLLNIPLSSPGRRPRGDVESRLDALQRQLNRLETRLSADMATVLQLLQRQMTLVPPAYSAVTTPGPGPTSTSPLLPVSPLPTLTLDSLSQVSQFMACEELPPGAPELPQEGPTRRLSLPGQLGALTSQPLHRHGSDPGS

With `COc1ccc(NC(=O)N(C)C2COc3ccc(Br)cc3C2)cc1Cl` (stereo not given), in series [1], the IC50 was above 100000 nM.

Take `COc1ncc(NC(=O)NC2COc3ccc(Br)cc3C2)cc1Cl` (stereo not given): the IC50 in [2] worked out at 3540 nM; in [1] it was 31 nM.

In the case of `COc1ncc(NC(=O)Nc2cnc3cc(Cl)nn3c2N2[C@@H](C)COC[C@@H]2C)cc1Cl`, the IC50 worked out at 330 nM in series [2] and 6 nM in series [1]. For the same compound, the concentration in solution in series [3] (solubility) came to 81 µM (≈ 37.8 µg/mL).

On to `COc1ccc(NC(=O)NC2COc3ccc(F)cc3C2)cc1Cl` (racemic), for which the IC50 in series [2] was 1250 nM; in [1] it was 57 nM.

`O=C(Nc1ccc(-n2cncn2)c(Cl)c1)N[C@H]1COc2ccc(Br)cc2C1`: the IC50 worked out at 1960 nM in series [2] and 26 nM in series [1].

Turning to `COc1ccc(CC(=O)NC2COc3ccccc3C2)cc1Cl` (stereo not given), in [1], the IC50 is above 100000 nM.

Compound `COc1ccc(NC(=O)N[C@H]2COc3ccccc3C2)cc1Cl` returned an IC50 in series [1] of 135 nM.

In the case of `COc1ccc(NC(=O)Nc2cnc3ccc(Br)cc3c2)cc1Cl`, the IC50 in [2] was 4820 nM; in series [1], 242 nM. In [3], this compound returned a solubility below 4 µM.

With `COc1ncc(NC(=O)Nc2cnc3ccc(C#N)cc3c2N2CCOC[C@@H]2C)cc1Cl`, the IC50 in series [2] worked out at 37 nM; in series [1], 5 nM. Moreover, the solubility in series [3] is below 4 µM. This compound yielded a logD in [4] of 3.8. Besides, in series [5], the “log(permeability)” value is given as -4.9. For the same compound, the microsomal CLint in series [6] came to 3.4 µL/min/mg. Also, in [7], the fraction unbound is 0.025. The clearance in series [8] worked out at 31 mL/min/kg. Further, the Vd in series [9] was found to be 4.8 L/kg. Besides, the half-life in [10] is 2.1 h. Besides, the AUC/dose in series [11] is 1240 nM·h; in series [12], 103 nM·h; in [13], 520 nM·h. In addition, the bioavailability stood at 8% in series [14] and 42% in series [15]. Moreover, the Cmax/dose stood at 11 nM in series [16] and 71 nM in [17]. In addition, the Tmax is 8 h in series [18] and 3 h in series [19]. Moreover, the solubility thermodynamic in series [20] amounted to 0.2 µg/mL (≈ 0.442 µM).

Consider `COc1ccc(NC(=O)NC2COc3ccc(C#N)cc3C2)cc1Cl` (racemic), for which the IC50 in series [2] was 1920 nM; in series [1] it was 150 nM.

Turning to `COc1ccc(N(C)C(=O)NC2COc3ccc(Br)cc3C2)cc1Cl` (stereo not given), the IC50 in series [1] is above 100000 nM.

For `COc1ccc(NC(=O)Nc2cnc3ccc(C#N)cc3c2N2CCOC[C@@H]2C)cc1Cl`, the figures for the IC50 in [2] and in series [1] were 120 nM and 6 nM, respectively. The same compound returned a solubility in [3] below 4 µM.

In the case of `COc1ncc(NC(=O)Nc2cnc3ccc(F)cc3c2N(C)C2CCCN(C)C2)cc1Cl` (stereo not given), the concentration in solution in series [3] (solubility) was 61 µM (≈ 28.9 µg/mL). Moreover, the IC50 was 9000 nM in [21] and 70 nM in [1].

As to `COc1ccc(NC(=O)NC2CCc3ccccc3C2)cc1Cl` (racemic), in series [1], the IC50 was above 100000 nM.

Turning to `CC1(C)COCCN1c1c(NC(=O)Nc2ccnc(C(F)(F)F)c2)cnc2cc(Cl)nn12`, the IC50 in [2] is 280 nM; in [1] it was 6 nM. Besides, the solubility in series [3] was 8 µM (≈ 3.76 µg/mL).

Take `COc1ncc(NC(=O)Nc2cnc3cc(Br)nn3c2N2CCOC[C@@H]2C)cc1Cl`: the IC50 stood at 740 nM in series [2] and 17 nM in [1]. This compound registered a solubility in [3] of 155 µM (≈ 77 µg/mL).

`COc1ncc(NC(=O)Nc2cnc3ccc(C#N)cc3c2N(C)C2CCOCC2)cc1Cl`: the IC50 in series [2] worked out at 190 nM; in series [1], 2 nM. The solubility in series [3] is below 4 µM.

Regarding `COc1ccc(NC(=O)Nc2cnc3ccc(Br)cc3c2Cl)cc1Cl`, the IC50 is 510 nM in series [2] and 29 nM in [1]. In [3], the solubility is below 4 µM.

For the compound `COc1ccc(NC(=O)NC2COc3ccc(Br)cc3C2)cc1Cl` (racemic), the IC50 in series [1] is 50 nM.

As for `COc1ccc(NC(=O)NC2CSc3ccc(F)cc3C2)cc1Cl` (racemic), the values for the IC50 in [2] and in series [1] were 4270 nM and 145 nM, respectively.

Compound `C[C@H]1COCCN1c1c(NC(=O)Nc2cnc(OC3CCN(C)CC3)c(Cl)c2)cnc2ccc(F)cc12` registered a solubility in series [3] of 60 µM (≈ 31.7 µg/mL). The IC50 in series [1] came to 70 nM.

With `COc1ccc(NC(=O)NC2COc3ccccc3C2)cc1Cl` (racemic), the values for the IC50 in series [2] and in series [1] were 2300 nM and 245 nM, respectively.

For the compound `COc1ccc(NC(=O)N[C@@H]2COc3ccccc3C2)cc1Cl`, in series [1], the IC50 was above 100000 nM.

In the case of `COc1ncc(NC(=O)Nc2cnc3cc(Cl)nn3c2N2CCOCC2(C)C)cc1Cl`, the IC50 in series [2] worked out at 80 nM; in [1] it was 2 nM. This compound had a solubility in [3] below 4 µM.

`COc1ccc(NC(=O)Nc2cnc3ccc(C#N)cc3c2N(C)C2CCOCC2)cc1Cl`: the IC50 was 670 nM in series [2] and 8 nM in series [1]. Moreover, the solubility in series [3] worked out at 27 µM (≈ 12.6 µg/mL). The log1/S in series [22] and in [23] was 7.1 each time. The log1/S0 in series [22] was found to be 7.1.

In turn, `COc1ccc(NC(=O)CC2COc3ccccc3C2)cc1Cl` (stereo not given) yielded an IC50 in series [1] of 1000 nM.

Usually IC50 stands for the concentration at which inhibition is half-maximal. The solubility is the concentration that dissolves in the medium under given conditions. The term logD denotes the decadic logarithm of the distribution of all forms, ionised or not, between an organic phase and buffer at a given pH. Higher therefore signals a more lipophilic compound. One may read the clearance as a measure of how efficiently the substance is removed, as volume per time. Lower therefore signals inefficient removal. What is called bioavailability is dose-corrected exposure relative to a reference, in per cent. Read a high bioavailability as good availability. What is called Tmax is the time at which the peak concentration occurs.
